Measurements from patent US9486402B2, “Compositions containing berberine or analogs thereof for treating rosacea or red face related skin disorders” (Derman Biomedicine Co. Ltd, priority 2009, dated 2016).

Tests used:
[1] = test system: IL-8 release from human keratinocytes; assay: Cathelicidin peptide (LL-37)-induced IL-8 release from human keratinocytes, ELISA; type: cell-based
Experimental: (§1) For our in vitro study, berberine (Sigma, St. Louis, Mo., USA) was dissolved in water, methanol, ethanol or dimethyl sulfoxide (DMSO). Normal human keratinocytes (Invitrogen, CA, USA) were grown in EpiLife medium (Invitrogen, CA, USA) supplemented with 0.06 mM Ca^+2, 1% EpiLife defined growth supplement, and 1% penicillin/streptomycin (Invitrogen, CA, USA). Cells were grown at 37° C. in a humidified atmosphere of 5% CO2 and 95% air. The human keratinocytes were cultured to confluence and treated with synthetic cathelicidin peptides (LL-37) (6.4 μM) for 16 h to induce inflammatory response similar to that observed in rosacea. Some of the cathelicidin-treated keratinocyte cultures were co-incubated with berberine of concentrations from 1.25 μg/ml to 12.5 μg/ml. The keratinocytes cultures treated with cathrlicidin or cathrlicidin with 1% ethanol and without berberine were used as negative controls. Supernatants were collected and placed in a sterile 96-well plate for ELISA of interleukin-8 (IL-8), interleukin-1 alpha (IL-1 alpha), and […] (VEGF) in accordance with the manufacturer's instructions (R&D Systems, MN, USA). […]
(§2) FIG. 1. […] Keratinocytes were stimulated by cathelicidin peptide (LL-37), and the release of IL-8 (FIG. 1A), IL-1 alpha (FIG. 1B) and VEGF (FIG. 1C) by the keratinocytes was evaluated by ELISA assay.

[2] = test system: IL-1 alpha release from human keratinocytes; assay: Cathelicidin peptide (LL-37)-induced IL-1 alpha release from human keratinocytes, ELISA; type: cell-based; conditions: 1.25 μg/ml berberine; LL-37 6.4 μM, 16 h; vs cathelicidin peptide with 1% ethanol control; P<0.05
Experimental: as §1, §2

[3] = test system: VEGF release from human keratinocytes; assay: Cathelicidin peptide (LL-37)-induced VEGF release from human keratinocytes, ELISA; type: cell-based; conditions: 1.25 μg/ml berberine; LL-37 6.4 μM, 16 h; vs cathelicidin peptide with 1% ethanol control; P<0.05
Experimental: as §1, §2

[4] = test system: cathelicidin-induced lesions; assay: Mouse model of rosacea (subcutaneous cathelicidin peptide), topical treatment; type: in vivo, BALB/c and C57BL/6 mice; conditions: topical formulation containing 0.1% berberine twice a day for 2 days; 4th day; vs controls (n=3 each)
Experimental: The animal model of rosacea: the animal model of rosacea was adopted from previous reported^18. Briefly, BALB/c and C57BL/6 mice, shaved 24 h before treatments, were injected subcutaneously on the back with 40 μl of cathelicdin peptide (320 μM) twice a day. Forty-eight hours after the initial injection (four injections in total), erythema and edema were observed on the injected site mimicking the clinical features of rosacea.
In our experiments, cathelicidin-injected mice were treated with or without topical berberine twice a day to observe the effect of berberine on reducing inflammation. […] The cathelicidin-injected mice were then divided into 2 groups, which were treated with berberine (n=3) or not treated with berberine (n=3; as controls), respectively, for a subsequent 2 days. The topical formulation containing 0.1% berberine was applied on the cathelicidin-induced lesions twice a day. The erythematous or inflammatory lesions lasted for more than 7 days in the control group.

patients with rosacea = assay: Open-label human clinical study on patients with rosacea; type: in vivo; conditions: for overall erythema severity (score 0 to 3): baseline 2.35±0.6; for overall erythema severity (score 0 to 3) / IGA score (7-point, 0 clear to 6 severe): P<0.0001 vs W0; for IGA score (7-point, 0 clear to 6 severe): baseline 4.1±1.3
Experimental: Method: an open-label clinical study was carried out to determine the efficacy of the topical berberine formulations of this invention for the treatment of rosacea and related skin disorders. Patients included in this study were diagnosed by dermatologists to have clinically defined rosacea. All patients were given 0.1% berberine gel twice a day for 6 weeks. At the time points of treatment initiation, and 2-weeks and 6-weeks after treatment, the patients were evaluated for their rosasea symptoms. The patients were not allowed to use other medications, including antibiotics, for their skin conditions. Only oral antihistamines were allowed for relief of pruritus symptoms. To evaluate the efficacy of treatment, the standard grading system for rosacea developed by the National Rosacea Society Expert Committee on the Classification and Staging of Rosacea was used^3. Additionally, the investigator's global assessment (IGA) and overall erythema severity of the patients were scored at week 0, week 2, and week 6 of berberine therapy. The IGA was expressed according to a 7-point scoring system with a range of 0 (clear) to 6 (severe). The severity of overall facial erythema and telangiectasia, respectively, was graded as ‘none’, ‘mild’, ‘moderate’, or ‘severe’ with scores from 0 to 3. The grading system used to assess overall facial erythema severity was described previously^38. Results: a total of 20 patients with rosacea (18 females and 2 males) were enrolled in this study. The mean age of the study population was 43.3 (19-85) years. The mean duration of rosacea prior to berberine treatment was 4 (1-24) years. Among the 20 patients with rosacea, 13 cases were of erythematotelangiectatic type (65%), 7 cases papulopustular type (35%), and […].

[5] = 0.1% berberine gel twice a day, end of treatment (6 weeks), 19 of the 20 patients

For `COc1ccc2cc3[n+](cc2c1OC)CCc1cc2c(cc1-3)OCO2` [berberine, 5,6-dihydro-9,10-dimethoxybenzo(g)-1,3-benzodioxolo (5,6-a) quinolizinium], the “inhibition of cathelicidin induced inflammatory response (IL-8, IL-1 alpha, VEGF release)” value ([1]; 0-12.5 μg/ml, especially when concentration larger than 6.25 μg/ml) was “significant inhibit cathelicidin induced inflammatory response in a dose-dependent manner”, the “decrease of the release of IL-8” value ([1]; 1.25 μg/ml berberine, LL-37 6.4 μM, 16 h, vs cathelicidin peptide with 1% ethanol control, P<0.05) was 31.4% and the “decrease of the release of IL-1 alpha” value [2] was 24.9%. The “decrease of the release of VEGF” value [3] was 29.1%, the “erythema and vascular dilatation” value [4] was “significant reduced” and the “cases with transient itchy/stinging sensation in the area of topical medication” value (patients with rosacea; 0.1% berberine gel twice a day for 6 weeks, 2 cases of 20, tolerable without discontinuation) was 10%. For the same compound, the serious adverse events (patients with rosacea; 0.1% berberine gel twice a day for 6 weeks, 20 patients) was “no serious adverse event”, the “patients with a mild (1) to none (0) erythema rating” value (patients with rosacea; [5]) was 95% and the “patients with a mild (2) to clear (0) IGA rating” value (patients with rosacea; [5]) was 95%. The “overall erythema severity (score 0 to 3)” value (patients with rosacea; 0.1% berberine gel twice a day, week 2) was 1.5±0.5, the “IGA score (7-point, 0 clear to 6 severe)” value (patients with rosacea; 0.1% berberine gel twice a day, week 2, 20 patients) was 2.6±0.9 and the “overall erythema severity (score 0 to 3)” value (patients with rosacea; 0.1% berberine gel twice a day, week 6) was 0.95±0.4. The “IGA score (7-point, 0 clear to 6 severe)” value (patients with rosacea; 0.1% berberine gel twice a day, week 6, 20 patients) was 1.6±0.8.
